The text below walks through data of paper PMC4585962, “A peptide factor secreted by Staphylococcus pseudintermedius exhibits properties of both bacteriocins and virulence factors” (Scientific Reports, 2015).

For series [1], the target named is T1, FPRL-1 (Homo sapiens, UniProt P25090).
T1 construct: host or cells: CHO-K1
Description: Formyl peptide receptor assay, cAMP-GLO, recombinant CHO-K1 cells. The format is cell-based. Conditions: 10 pM–5 μM BacSp222, CHO-K1 cells overexpressing FPRL-1, cAMP-GLO; fMLP positive control (data not shown). As to the method:
Activation of the cellular formyl-peptide receptor was assayed using cAMPZen FroZen N-formyl peptide (FPRL1) human recombinant CHO-K1 cells (Perkin-Elmer) and a cAMP-GLO bioluminescent assay (Promega) largely according to the protocols provided by the manufacturers. Formyl-methionyl-leucyl-phenylalanine peptide (fMLP, Sigma) was used as a positive control, and the BacSp222 concentrations tested were 0.01, 0.1, 1.0, 10, 100, 1000, and 5000 nM.

Series [2] concerns adipose-derived stem cells (ASC). Put plainly: Cytotoxicity, LDH and MTT assays. The format is cell-based. Conditions: 4 h exposure, said to be similar to the other cell types (Fig. S7). As to the method: Human skin fibroblasts (HSF, ATCC CRL-2522), adipose-derived stem cells (ASCs, ATCC PCS-500-011), and HeLa human epithelioid cervix carcinoma cells (ATCC CCL-2) were maintained in Dulbecco’s modified Eagle’s medium (DMEM, Sigma) containing 1 g/l glucose, 10% (v/v) foetal bovine serum (FBS), 1 U/ml penicillin, 1 μg/ml streptomycin, and 2.5 μg/ml amphotericin B. Murine P388/D1 monocyte/macrophage cells (ATCC CCL-46) and murine RAW264.7 macrophage-like cells (ATCC TIB-71) were cultured in DMEM containing 4.5 g/l glucose, 5% (v/v) FBS, and antibiotics, as indicated above. Keratinocytes from human skin were grown in KBM Gold Medium (Lonza). All cells were incubated in standard conditions (5% CO2, 37 °C, >95% humidity). […] After a 30-min incubation (RT, in the dark), the reaction was stopped, and the absorbance was measured with a microplate reader (PowerWave X, BioTek Instruments) at 490 nm, followed by subtraction of the absorbance reference value at 690 nm. […] The absorbance of solubilized purple formazan was measured at 540 nm, followed by subtraction of the absorbance reference value at 690 nm. […] The amount of released haemoglobin was spectrophotometrically determined at 540 nm and compared with a positive control (erythrocytes lysed with 1% sodium dodecyl sulphate).
(Tetrazolium dyes change colour on reduction, which living cells bring about.)

For series [3], the system named is staphopain C (StpC). Description: Susceptibility to proteolysis, residual bactericidal activity. The format is in vitro ADME, S. aureus. Conditions: 30 μM peptide, 100 mM Tris-HCl pH 7.5 with 5 mM cysteine hydrochloride and 5 mM EDTA, enzyme:peptide 1:50 or 1:10 (w/w), 3 hours, 37 °C; residual activity by radial diffusion assay on B. subtilis; triplicate. As to the method: (§1) The bactericidal activity of BacSp222 was also determined using the radial diffusion assay. In TSB agar (1%, w/v) containing a 200× diluted overnight culture of Bacillus subtilis ATCC 6633, wells of 2.4-mm diameter were created by drilling out the agar and filling the hole with 10 μl of the BacSp222 preparation for testing. Following overnight incubation at 37 °C, the bactericidal activity was measured as the area of the inhibition zones.
(§2) The temperature stability of BacSp222 (30 μM final concentration) was determined in PBS. The solution was incubated for 1 or 3 h at 72 °C (typical temperature of pasteurization) or at 100 °C. Independently, a solution of bacteriocin was also subjected to a full cycle of autoclaving (20 min at 121 °C). The susceptibility of BacSp222 to proteolysis was verified using S. aureus staphopain C and V8 peptidase, human neutrophil elastase, human cathepsin G (Biocentrum), bovine TPCK-treated trypsin, pepsin from porcine gastric mucosa (Sigma), and proteinase K (A&A Biotechnology). […] The residual activity was determined with the radial diffusion assay using Bacillus subtilis as an indicator strain. […]

Series [4] concerns the target T2, V8 peptidase (Staphylococcus aureus, UniProt P0C1U8).
T2 construct: purchased Biocentrum
The series is described as above. Conditions: 30 μM peptide, 100 mM sodium phosphate pH 7.8, enzyme:peptide 1:50 or 1:10 (w/w), 3 hours, 37 °C; residual activity by radial diffusion assay on B. subtilis; triplicate. The format is in vitro ADME, S. aureus. As to the method: as §1, §2

Series [5] can be described thus: Temperature stability, residual bactericidal activity. Conditions: 30 μM in PBS, full cycle of autoclaving, 20 min at 121 °C; radial diffusion assay on B. subtilis; 100% = untreated BacSp222; triplicate ± SD. The series is classed as physicochemical. As to the method: as §1, §2

Entries after “also recorded” stand apart in the source; their conditions may differ. No end group written: not given here. *: point of attachment. For = O=C*

T1 sequence (P25090 whole entry): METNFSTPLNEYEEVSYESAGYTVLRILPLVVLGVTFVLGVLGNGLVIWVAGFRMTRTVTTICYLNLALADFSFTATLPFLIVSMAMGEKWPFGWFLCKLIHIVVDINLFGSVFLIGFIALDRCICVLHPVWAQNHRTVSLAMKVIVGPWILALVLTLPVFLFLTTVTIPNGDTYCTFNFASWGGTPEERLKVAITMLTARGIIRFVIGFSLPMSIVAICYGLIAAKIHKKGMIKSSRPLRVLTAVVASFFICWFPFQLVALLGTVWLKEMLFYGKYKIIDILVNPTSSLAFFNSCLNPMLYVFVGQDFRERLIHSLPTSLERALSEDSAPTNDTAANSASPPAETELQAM
T2 sequence (P0C1U8 69-336): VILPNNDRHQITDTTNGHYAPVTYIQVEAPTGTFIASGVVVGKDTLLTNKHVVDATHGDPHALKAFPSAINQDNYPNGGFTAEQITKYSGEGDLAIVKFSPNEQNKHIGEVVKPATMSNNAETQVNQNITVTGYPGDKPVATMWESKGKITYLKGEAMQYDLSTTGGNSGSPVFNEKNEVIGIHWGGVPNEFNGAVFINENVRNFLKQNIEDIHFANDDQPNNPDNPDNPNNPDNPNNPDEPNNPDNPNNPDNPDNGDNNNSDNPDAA

For the substance “For-MAGLLRFLLSKGRALYNWAKSHVGKVWEWLKSGATYEQIKEWIENALGWR [BacSp222]”, in series [1], the “stimulation of formyl-peptide receptor” value was “not able to stimulate; also recorded: did not activate”. In addition, the cytotoxic effect entry in series [2] is “sigmoidal, dose-dependent cytotoxic effect”. The “activity of BacSp222 after incubation with the enzyme” value in series [3] and in series [4] was “not significantly reduced” each time. Besides, the “activity against the indicator strain after autoclaving” value in series [5] is recorded as 55 ± 8.8%.
